According to patent US6162810A, “Inadone and tetralone compounds for inhibiting cell proliferation” (The Regents of the University of California, priority 1998, dated 2000):
“Also recorded” adds a separate entry of the source.

Assays:
caspase-3 in HL-60 cells = test: Caspase-3 activation in HL-60 cells; assay type: cell-based, human
MES-SA/DX5 = test: Growth inhibition of MES-SA/DX5 (MDR); assay type: cell-based; conditions: Homo sapiens, ±1 SD, n>5
CEM/VLB100 = test: Growth inhibition of CEM/VLB100 (MDR); assay type: cell-based; conditions: Homo sapiens, ±1 SD, n>5
[1] = tested on: tubulin (colchicine-binding site); test: Inhibition of [3H]colchicine binding to tubulin; parameters: species or system bovine; conditions: 5 μM compound, 5 μM [3H]colchicine, 1 μM tubulin, n=4
Procedure: (§1) To evaluate the effects of the TB compounds of the invention on tubulin, bovine brain tubulin (2.2 mg/ml) was incubated in PEM80 (80 mM K-PIPES, 1 mM MgCl2, 1 mM EGTA) containing 10% glycerol and 2 mM GTP for 30 minutes at 37° C. in the presence or absence of 20 μg/ml nocodazole, 1 mM paclitaxel, or TB compound no. IK-178 at various concentrations. Tubulin polymer was resolved from monomer by sedimentation through a cushion of 60% glycerol in PEM80 at 70,000 rpm for 30 min at 37° C. in a Beckman TLA100 rotor. A fraction of the supernatant was removed for analysis, the cushion washed and then aspirated, and the pellet resuspended in SDS-PAGE sample buffer. Equal proportions of the supernatant and the pellet were then resolved by SDS-PAGE and tubulin visualized by staining with Coomassie blue.
(§2) The quantitative assessment of drug inhibition of tubulin polymerization and evaluation of inhibition of [^3 H]colchicine binding to tubulin were then performed. […] Samples were placed on ice and GTP (0.4 mM) was added. Reaction mixtures were transferred to 0° C. cuvettes in Gilford 250 spectrophotometers, baselines were establishes/d, and the temperature was jumped to 30° C. with electronic temperature controllers (about 60 sec). The IC^50 was defined as the drug concentration required to inhibit extent of assembly after a 20 min incubation. […]

MCF-7/ADR = test: Growth inhibition of MCF-7/ADR (MDR); assay type: cell-based; conditions: Homo sapiens, NCI/ADR-RES, ±1 SD, n>5
tubulin [2] = test: Inhibition of [3H]vinblastine binding to tubulin; parameters: species or system bovine; conditions: single experiment
Procedure: The TB compounds of the invention (as represented by TB compound IK-178), are nearly as potent as the strong tubulin assembly inhibitor, combretastatin A-4 (CS-A4). In particular, the GI^50 inhibitory concentration of CS-A4 was 1.2±0.03 μM (n=4), while that of TB compound IK-178 was 1.7±0.1 μM (n=3).

MES-SA = test: Growth inhibition of MES-SA (wild type); assay type: cell-based; conditions: Homo sapiens, ±1 SD, n>5
MCF-7 wild type cells = test: Cell death of stationary phase MCF-7 wild type cells (FACS); assay type: cell-based, human; conditions: MCF-7 wild type (parental) cells
[3] = tested on: caspase-3 in HL-60/ADR cells; test: Caspase-3 activation in HL-60/ADR cells; assay type: cell-based, human; conditions: 10 nM
[4] = tested on: caspase-3 in MCF-7/ADR cells; test: Caspase-3 activation in noncycling MCF-7/ADR cells; assay type: cell-based, human
Procedure: Briefly, cell extracts were prepared from 5×10^6 cells in 100 μl of a lysis buffer (25 mM TrisHCl, pH 7.5, 150 mM KCl, 5 mM EDNA, 1% Nonidet P-40, 0.5% sodium deoxycholate, and 0.1% SDS) and maintained on ice for 10 min, followed by centrifugation at 14,000×g for 5 min at 4° C. The resulting supernatants were collected and frozen at -80° C. or used immediately. Lysates (20 μl, 5-10 μg of total protein) were mixed with 30 μl of assay buffer (50 mM PIPES, 50 mM KC, 5 mM EGTA, 2 mM MgCl2, 1 mM dithiothreitol (DTT), and 0.1 phenylmethanesulfonyl fluoride (PMSF)), containing 100 μM of Z-DEVD-AFC. Caspase-3-like protease activity was measured at 37° C. using a spectrofluorometric plate reader (Perkin-Elmer, LS50B) in the kinetic mode with excitation and emission wavelengths of 400 and 505 nm, respectively. Activity was measured by the release of […] from the synthetic substrate Z-DEVD-AFC (Biomol, Plymouth Meeting, Pa.).

HL-60 = test: Growth inhibition of HL-60 (wild type); assay type: cell-based; conditions: Homo sapiens, ±1 SD, n>5
MV522 = test: Growth inhibition of MV522 (wild type); assay type: cell-based; conditions: Homo sapiens, ±1 SD, n>5
KB-3-1 = test: Growth inhibition of KB-3-1 (wild type); assay type: cell-based; conditions: Homo sapiens, ±1 SD, n>5
HL-60/ADR cells = test: Apoptosis of HL-60/ADR cells (FACS); assay type: cell-based, human
Procedure: FACS analysis was performed to determine the influence of the TB compounds of the invention on growth cycling of cells (the analysis was performed on harvested cells, fixed in ice-cold 70% ethanol solution, then treated with 100 μg/ml of RNAse A and stained with 50 μg/ml propidium iodide for 1 h at 37° C. DNA content of the cells was analyzed by flow cytometry (Becton Dickinson FACScalibur), and the cell cycle distribution was calculated with the program ModFit LT 2.0 (Verity Software)).
First, the stage at which the TB compounds of the invention arrest growth of HL-60 and HL-60/ADR cells was determined by FACS analysis and caspase-3 activation as described above.

tubulin [5] = test: Inhibition of tubulin assembly; assay type: biochemical, bovine; conditions: 10 μM tubulin, 20 min incubation, 30° C.; read-out: GI50 inhibitory concentration (tubulin assembly)
Procedure: as §1, §2

CEM = test: Growth inhibition of CEM (wild type); assay type: cell-based; conditions: Homo sapiens, CCRF-CEM, ±1 SD, n>5
MCF-7 = test: Growth inhibition of MCF-7 (wild type); assay type: cell-based; conditions: Homo sapiens, MCF7, ±1 SD, n>5
MV522/Q6 = test: Growth inhibition of MV522/Q6 (MDR); assay type: cell-based; conditions: Homo sapiens, ±1 SD, n>5
KB-GRC-1 = test: Growth inhibition of KB-GRC-1 (MDR); assay type: cell-based; conditions: Homo sapiens, MDR1, ±1 SD, n>5
HL-60/ADR = test: Growth inhibition of HL-60/ADR (MDR); assay type: cell-based; conditions: Homo sapiens, HL60/ADR, ±1 SD, n>5
[6] = tested on: HL-60/ADR and MDF-7/ADR cells; test: MTT assay, visual comparison of cells with and without MDR (FIGS. 1 and 2); assay type: cell-based, human; conditions: 3 days
MDA-MB-321 = test: Growth inhibition of MDA-MB-321 (wild type); assay type: cell-based; conditions: Homo sapiens, ±1 SD, n>5
MCF-7/ADR cells = test: Cell death of stationary phase MCF-7/ADR cells (FACS); assay type: cell-based, human; conditions: noncycling MCF-7/ADR cells
KB-GRC-1 and MV522/Q6 = test: MTT proliferation assay of mdr1 overexpressing transfectomas; assay type: cell-based, human; conditions: 72 h
human cancer cell lines = test: Hollow fiber assay, in vivo growth inhibitory activity; parameters: species or system human cells in mice
Procedure: To screen the compounds of the invention for growth inhibitory activity, a hollow fiber assay test was performed according to the protocol established by the National Cancer Institute's Developmental Therapeutics Program.
Briefly, according to the National Cancer Institute, the hollow fiber assay is performed as follows:
For these assays, human tumor cells are cultivated in polyvinylidene fluoride (PVDF) hollow fibers, and a sample of each cell line is implanted into each of two physiologic compartments (intraperitoneal and subcutaneous) in mice. Each test mouse receives a total of 6 fibers (3 intraperitoneally and 3 subcutaneously) representing 3 distinct cancer cell lines. Three mice are treated with potential antitumor compounds at each of 2 test doses by the intraperitoneal route using a QD×4 treatment schedule. Vehicle controls consist of 6 mice receiving the compound diluent only. The fiber cultures are collected on the day following the last day of treatment. To assess anticancer effects, viable cell mass is determined for each of the cell lines using a formazan dye (MTT) conversion assay. From this, the % T/C can be calculated using the average optical density of the compound treated samples divided by the average optical density of the vehicle controls. In addition, the net increase in cell mass can be determined for each sample as a sample of fiber cultures are assessed for viable cell mass on the day of implantation into mice. Thus, the cytostatic and cytocidal capacities of the test compound can be assessed.
This represents a total of 4 experiments since each experiment contains 3 cell lines. The data are reported as % T/C for each of the 2 compound doses against each of the cell lines with separate values calculated for the intraperitoneal and subcutaneous samples.
Compounds are selected for further in vivo testing in standard subcutaneous xenograft models on the basis of several hollow fiber assay criteria. […] The intraperitoneal and subcutaneous samples are scored separately so that criteria (1) and (2) can be evaluated. […]

[7] = tested on: normal peripheral blood lymphocytes; test: Viability of normal peripheral blood lymphocytes; assay type: cell-based; conditions: as much as 1000-fold higher concentrations, 72 hours
MDA3-1/gp170 = test: Growth inhibition of MDA3-1/gp170 (MDR); assay type: cell-based; conditions: Homo sapiens, MDR1, ±1 SD, n>5

Compound: COc1cc2c(c(N)c1OC)C(=O)/C(=C\c1cc(C)c(O)c(C)c1)C2 [IK-178]
- caspase-3 activity (caspase-3 in HL-60 cells; HL-60 cells): only a slight increase
- caspase-3 activity relative to the level in the multidrug resistant cells (caspase-3 in HL-60 cells; HL-60 wild type vs HL-60/ADR): about a quarter
- GI50 (MES-SA/DX5): 0.012 ± 0.003 µM
- GI50 (CEM/VLB100): 0.02 ± 0.001 µM
- inhibition of [3H]colchicine binding [1]: 95±2%
- GI50 (MCF-7/ADR): 0.004 ± 0.001 µM
- inhibition of [3H]vinblastine binding to tubulin (tubulin [2]): Neither agent inhibited
- GI50 (MES-SA): 0.085 ± 0.006 µM
- cell death / apoptosis (MCF-7 wild type cells): growth-arrested but did not show any apoptotic features
- time of maximum caspase-3 activity [3]: 24 h
- caspase-3 activity ([3]; compared with untreated cells): time-dependent increase in caspase-3 activity
- activation of caspase-3 [4]: activation of caspase-3
- GI50 (HL-60): 0.04 ± 0.003 µM
- GI50 (MV522): 0.013 ± 0.003 µM
- GI50 (KB-3-1): 0.007 ± 0.002 µM
- apoptosis (HL-60/ADR cells): became apoptotic; also recorded: did induce
- GI50 (tubulin [5]): 1.7 ± 0.1 µM
- GI50 (CEM): 0.012 ± 0.002 µM
- GI50 (MCF-7): 0.02 ± 0.005 µM
- GI50 (MV522/Q6): 0.008 ± 0.002 µM
- GI50 (KB-GRC-1): 0.007 ± 0.003 µM
- GI50 (HL-60/ADR): 0.002 ± 0.0002 µM
- sensitivity with acquisition of MDR [6]: retained, and even enhanced
- GI50 (MDA-MB-321): 0.01 ± 0.003 µM
- cell death / apoptosis (MCF-7/ADR cells): appearance of an apoptotic sub-G0 /G1 peak
- cell death / apoptosis (MCF-7/ADR cells; listed as indanocine): die following treatment
- sensitivity of transfectomas overexpressing mdr1 (KB-GRC-1 and MV522/Q6): retained complete sensitivity
- TOTAL SCORE (IP + SC) (human cancer cell lines; IP + SC): 24
- IP SCORE (human cancer cell lines; intraperitoneal fibers, intraperitoneal treatment QD×4): 18
- SC SCORE (human cancer cell lines; subcutaneous fibers, intraperitoneal treatment QD×4): 6
- loss of viability [7]: no loss of viability
- GI50 (MDA3-1/gp170): 0.025 ± 0.002 µM
